Reference: ChEMBL document CHEMBL1201862, “PubChem BioAssay data set” (2004)
Active and inactive are the calls of the source.

Columns and labels:
[1] = target: T1, Methionyl-tRNA synthetase, putative (Trypanosoma brucei brucei, UniProt Q38C91); type: functional, Trypanosoma brucei brucei strain 927/4 GUTat10.1
T1 sequence (Q38C91 whole entry): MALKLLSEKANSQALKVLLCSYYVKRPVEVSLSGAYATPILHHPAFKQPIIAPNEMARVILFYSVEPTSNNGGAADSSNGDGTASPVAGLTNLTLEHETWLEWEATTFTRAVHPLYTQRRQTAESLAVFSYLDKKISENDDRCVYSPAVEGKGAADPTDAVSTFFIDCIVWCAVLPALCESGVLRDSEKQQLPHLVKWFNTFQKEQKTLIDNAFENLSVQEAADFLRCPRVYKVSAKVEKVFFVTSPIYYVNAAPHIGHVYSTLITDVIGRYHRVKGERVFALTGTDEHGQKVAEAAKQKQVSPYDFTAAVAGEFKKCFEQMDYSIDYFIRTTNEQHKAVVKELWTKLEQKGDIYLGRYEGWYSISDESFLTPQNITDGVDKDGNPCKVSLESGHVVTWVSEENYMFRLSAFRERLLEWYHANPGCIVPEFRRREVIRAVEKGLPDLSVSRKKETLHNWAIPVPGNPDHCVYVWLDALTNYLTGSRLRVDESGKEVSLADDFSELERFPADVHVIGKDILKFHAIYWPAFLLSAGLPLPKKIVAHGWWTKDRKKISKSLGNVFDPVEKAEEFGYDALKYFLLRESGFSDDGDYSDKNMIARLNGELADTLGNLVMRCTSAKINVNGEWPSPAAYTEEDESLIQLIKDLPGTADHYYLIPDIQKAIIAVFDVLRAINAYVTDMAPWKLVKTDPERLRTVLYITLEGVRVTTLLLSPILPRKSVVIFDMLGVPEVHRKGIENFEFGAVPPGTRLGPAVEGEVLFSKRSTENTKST

[2] = target: T1, Methionyl-tRNA synthetase, putative; type: functional, Trypanosoma brucei brucei strain 927/4 GUTat10.1; remark: listed apart in the source
[3] = Counterscreen for inhibitors of Trypanosoma brucei methionyl tRNA synthetase (MetRS): Luminescence-based cell-based high throughput dose response assay to identify compounds that are cytotoxic to Jurkat human T lymphocyte cells.; type: functional
[4] = CEM21 lymphoblast cell cytotoxicity, dose response, cytotoxicity control for viral fusion inhibitor project, CellTiter-Glo luminescence, cherry-picked (AID 652042); type: functional, cell-based;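 also: potency for signal decrease meaning cytotoxicity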
[5] = inhibitors of clade B AD8 Env fusion, dose response, cell-based, cherry-pick (AID 652062); type: functional;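 also: luciferase signal from cell-cell fusion driven by HIV-1 clade B AD8 Env; potency is for inhibitors of fusion seen as a drop in luminescence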
[6] = ZM109 Env clade C HIV-1 fusion inhibitors, dose response, HeLa effector, CEM target cells, luciferase, cherry-pick (AID 652058); type: functional, cell-based
[7] = inhibitors of HIV Env-driven cell fusion, dose response, cherry-pick (AID 652057); type: functional, cell-based
[8] = off-target signal loss in HeLa-CEM21 co-culture – HeLa F-luc CTL cells, cherry-picked, counter-screen for HIV-1 Env fusion inhibitor project, dose response (AID 652040); type: functional, cell-based;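 also: potency for signal decrease marking cytotoxic or nonspecific inhibition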
[9] = Luminescence Cell-Based Dose Retest to Confirm Inhibitors of Cancer Stem Cells. [Related pubchem assays (depositor defined):AID2717, AID2721]; type: functional; details: Homo sapiens
[10] = miR-122 activators in hepatoma reporter cells, dose response, cell-based, Huh7 psiCHECK-miR122, Renilla luciferase, cherry-picked (AID 651956); type: functional;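 also: huh7 hepatoma cells stably carrying a psiCHECK-2 miR-122 sensor plasmid; renilla luciferase signal reporting endogenous miR-122 activity after 48 h compound exposure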
[11] = intracellular Trypanosoma cruzi inhibitors in host cells – cell-based, plate reader, cherry-pick samples, set 3, dose response (AID 651818); type: functional;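 also: compounds incubated with infected cells for about four days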
[12] = target: Disintegrin and metalloproteinase domain-containing protein 17 (Homo sapiens, UniProt P78536); experiment: exosite inhibitors of ADAM17, dose response, biochemical (AID 743260)
[13] = ADAM10 protease inhibitors, dose response, selectivity assay for ADAM17 exosite inhibitor project, biochemical, FRET peptide substrate, recombinant human ADAM10 (AID 743259);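 also: ADAM10 enzyme cleaving a FRET peptide substrate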
[14] = cytotoxicity toward NIH3T3 fibroblasts, dose response, counter-screen, cell-based, ATP luminescence, mouse fibroblasts (AID 2010); type: functional;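 also: cells exposed to compound for about 90 hours before reading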
[15] = inhibitors of intracellular T. cruzi replication, confirmation, NIH3T3 host cells, beta-gal luminescence (AID 2044); type: functional, cell-based;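 also: intracellular parasites grown in NIH/3T3 mouse fibroblasts as host cells; luminescent beta-galactosidase reporter signal from transgenic T. cruzi replicating inside host cells; inhibitors lower the luminescence signal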
[16] = target: T2, Microphthalmia-associated transcription factor (Homo sapiens, UniProt O75030); experiment: TRPM1 promoter luciferase signal decrease, dose response, MITF inhibitor project, cell-based, SK-MEL-5, cherry-picked, set 3 (AID 493073); type: functional
T2 sequence (O75030 whole entry): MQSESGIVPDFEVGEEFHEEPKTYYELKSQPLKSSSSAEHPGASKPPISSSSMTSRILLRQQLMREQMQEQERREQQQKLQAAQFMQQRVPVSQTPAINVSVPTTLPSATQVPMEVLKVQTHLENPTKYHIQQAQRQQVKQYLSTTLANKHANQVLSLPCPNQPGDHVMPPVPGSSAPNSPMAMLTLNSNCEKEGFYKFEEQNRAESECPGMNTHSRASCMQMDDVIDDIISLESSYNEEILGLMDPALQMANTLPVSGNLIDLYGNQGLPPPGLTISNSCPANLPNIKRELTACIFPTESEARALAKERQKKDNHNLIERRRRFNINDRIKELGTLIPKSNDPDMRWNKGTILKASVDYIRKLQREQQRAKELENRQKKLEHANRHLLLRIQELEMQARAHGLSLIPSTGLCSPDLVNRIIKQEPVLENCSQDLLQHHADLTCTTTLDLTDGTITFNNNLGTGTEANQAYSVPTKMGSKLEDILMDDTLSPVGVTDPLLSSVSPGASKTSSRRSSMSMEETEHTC

[17] = target: T3, DNA repair and recombination protein RAD54-like (Homo sapiens, UniProt Q92698); experiment: inhibitors of human RAD54 branch migration, confirmation, biochemical, fluorescence, cherry-picked samples, dose series (AID 651657); type: functional
T3 sequence (Q92698 whole entry): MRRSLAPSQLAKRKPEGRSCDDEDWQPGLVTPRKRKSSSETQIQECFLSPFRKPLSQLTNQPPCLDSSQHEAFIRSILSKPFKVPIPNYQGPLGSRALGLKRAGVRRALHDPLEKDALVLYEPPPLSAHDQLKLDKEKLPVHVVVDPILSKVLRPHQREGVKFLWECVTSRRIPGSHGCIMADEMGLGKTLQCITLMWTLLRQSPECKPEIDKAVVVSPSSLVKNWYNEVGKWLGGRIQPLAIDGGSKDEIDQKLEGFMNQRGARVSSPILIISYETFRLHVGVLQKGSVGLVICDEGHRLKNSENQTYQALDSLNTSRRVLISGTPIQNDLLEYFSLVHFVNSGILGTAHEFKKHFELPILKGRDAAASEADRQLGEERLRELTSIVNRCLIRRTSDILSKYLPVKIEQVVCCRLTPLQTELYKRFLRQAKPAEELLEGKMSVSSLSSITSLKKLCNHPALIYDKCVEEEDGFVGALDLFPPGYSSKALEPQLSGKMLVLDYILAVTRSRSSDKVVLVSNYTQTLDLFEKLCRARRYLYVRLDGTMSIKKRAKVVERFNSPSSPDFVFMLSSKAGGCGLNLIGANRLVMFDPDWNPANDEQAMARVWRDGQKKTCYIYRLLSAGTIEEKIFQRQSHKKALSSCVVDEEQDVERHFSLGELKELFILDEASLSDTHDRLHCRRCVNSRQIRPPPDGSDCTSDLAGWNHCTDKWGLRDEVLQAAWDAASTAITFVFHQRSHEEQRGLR

Chain of Disintegrin and metalloproteinase domain-containing protein 17 (P78536 whole entry, the tested form may be a part): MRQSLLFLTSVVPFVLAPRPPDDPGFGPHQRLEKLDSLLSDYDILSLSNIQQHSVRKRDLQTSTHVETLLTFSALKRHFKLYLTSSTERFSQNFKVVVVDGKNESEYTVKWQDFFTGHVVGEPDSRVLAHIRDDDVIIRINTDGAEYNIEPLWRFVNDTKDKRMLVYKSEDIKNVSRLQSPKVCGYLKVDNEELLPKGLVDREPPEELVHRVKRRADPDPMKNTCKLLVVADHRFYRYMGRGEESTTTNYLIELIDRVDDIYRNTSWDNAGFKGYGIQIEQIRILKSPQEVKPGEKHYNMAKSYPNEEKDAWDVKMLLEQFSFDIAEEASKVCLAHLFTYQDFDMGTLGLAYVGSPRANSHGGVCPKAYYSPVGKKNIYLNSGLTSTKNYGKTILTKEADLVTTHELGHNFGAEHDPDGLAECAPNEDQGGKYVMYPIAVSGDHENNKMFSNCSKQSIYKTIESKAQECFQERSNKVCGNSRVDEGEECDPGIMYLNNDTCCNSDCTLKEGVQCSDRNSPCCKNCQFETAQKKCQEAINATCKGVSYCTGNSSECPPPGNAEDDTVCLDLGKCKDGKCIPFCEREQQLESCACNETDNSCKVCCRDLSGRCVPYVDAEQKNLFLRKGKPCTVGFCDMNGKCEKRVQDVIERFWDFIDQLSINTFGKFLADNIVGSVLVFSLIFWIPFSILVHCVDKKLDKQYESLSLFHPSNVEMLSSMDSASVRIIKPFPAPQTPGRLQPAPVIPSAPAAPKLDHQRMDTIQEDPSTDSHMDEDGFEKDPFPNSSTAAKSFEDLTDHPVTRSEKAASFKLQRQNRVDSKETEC

With `O=C(OC(C(=O)c1c[nH]c2ccccc12)c1ccccc1)c1cnccn1` (stereo not given) the IC50 [1] was 32.3 µM (inactive), the IC50 [2] was 59.3 µM (inactive) and the IC50 [3] was 83.3 µM (inactive).

In the case of `CC(C)C[C@H](CO)N(Cc1ccccc1)S(=O)(=O)N(Cc1ccccc1)[C@@H](CO)CC(C)C`, the AC50 [4] is reported as 9.89 µM (active), the AC50 [5] is reported as 8.16 µM (active) and the AC50 [6] is reported as 3.38 µM (active). For the same compound, the AC50 [7] was 2.8 µM (active), the AC50 [8] was 12.4 µM (active) and the AC50 [9] was 3.47 µM (active).

In the case of `C[C@@H]1CN([C@@H](C)CO)S(=O)(=O)c2ccc(/C=C/c3ccccc3)cc2O[C@@H]1CN(C)C(=O)c1cccnc1`, the AC50 [10] is reported as 3.93 µM (active).

In the case of `C[C@@H]1CN([C@H](C)CO)C(=O)c2cccc(NC(=O)c3ccc(-c4nccs4)cc3)c2O[C@@H]1CN(C)Cc1ccc(C(=O)Nc2ccccc2N)cc1`, the AC50 [11] is reported as 1.69 µM (active).

For `C[C@@H]1CN([C@H](C)CO)C(=O)c2cc(NC(=O)NC3CCCCC3)ccc2O[C@H]1CN(C)Cc1ccc(Oc2ccccc2)cc1`, the AC50 [11] was 6.06 µM (active).

With `COc1ccc(S(=O)(=O)N(C)C[C@H]2Oc3c(NC(=O)Nc4ccc(C(F)(F)F)cc4)cccc3C(=O)N([C@@H](C)CO)C[C@@H]2C)cc1` the AC50 [11] was 5.69 µM (active).

For `Cc1noc(C)c1S(=O)(=O)Nc1ccc2c(c1)CC(=O)N([C@H](C)CO)C[C@@H](C)[C@@H](CN(C)Cc1ccc(Oc3ccccc3)cc1)O2`, the AC50 [11] was 5.85 µM (active).

In the case of `O=C(NC1CCCCN(Cc2cccc(Cl)c2)C1=O)c1ccc(COc2ccccc2)cc1` (stereo not given), the IC50 [12] is reported as > 69.5 µM (inactive) and the IC50 [13] is reported as 20.7 µM (inactive).

For `Cc1ccc(/N=C2\C(Cl)=C(O)OC2OC(=O)c2ccc(C)cc2)cc1` (stereo not given), the IC50 [12] was > 69.5 µM (inactive) and the IC50 [13] was > 7.73 µM (active).

For `CCn1c(/C=C/N(C)c2ccccc2)[n+](CC)c2cc(Cl)ccc21`, the AC50 [4] was 35.5 µM (active), the EC50 [14] was 21.5 µM (active) and the AC50 [5] was 9.72 µM (active). For the same compound, the EC50 [15] was 0.286 µM (active), the AC50 [6] was 59.3 µM (active) and the AC50 [16] was 6.86 µM (active).

With `CC(CCCN1CCCC1)Nc1ccnc2cc(Cl)ccc12` (stereo not given) [Chloroquine-pyrolidinyl] the AC50 [17] was 35.7 µM (active).
